Here are results for ten compounds from patent US6667341B2, “Delta dicarbonyl compounds and methods for using the same” (Beacon Laboratories, Inc., priority 2000, dated 2003).

The structures appear in SMILES notation.

The first experiment relates to MCF-7 breast cancer cells. The experiment in a line: Anti-proliferation assay, MCF-7. The format is cell-based. The settings on record: Homo sapiens, MCF7; value marked *: obtained from MCF-7 cell line; read-out: PC-3 or MCF-7* IC50. The procedure:
(§1) Compounds prepared according to Examples 1-7 were tested for anti-proliferation against PC-3 prostate or MCF-7 breast cancer cells. The specific compounds tested include N-methyl-2-(2-methoxyethoxy)acetamidomethyl butyrate; N-methylbutyramidomethyl cinnamate; N-methylcinnamamidomethyl butyrate; cinnamoyloxymethyl thiobutyrate; butyroyloxymethyl thiocinnamate; bis(thiobutyl)methane; 3-oxohexyl cinnamate; and propionoyloxymethyl propionate. Butyric acid and trichostatin, a potent HDAC inhibitor, were used as reference compounds. Both compounds were purchased from Sigma-Aldrich, Milwaukee, Wis.
Cell culture plates were then heated to 90° C. to liquefy the agarose, and cells were harvested onto glass fiber filters, which were then placed into counting vials containing liquid scintillation fluid. The radioactivity trapped on the filters was counted with a Beckman scintillation counter. The fraction of surviving cells was determined by comparing ^3H-TdR incorporation in treated (experimental points) and untreated (negative control) wells. All drug concentrations are presented as μM, allowing for normalization of drug response curves and direct comparison of the effects of the drugs. […] IC50 values were determined using the approximated sigmoidal curves and expressed as μM. […]
Regarding `CCC(=O)OCOC(=S)CC` [propionoyloxymethyl thiopropionate, Propionoyloxymethyl Thiopropionate], the IC50 (commonly the concentration that gives 50% inhibition) was determined as 50 µM.

Another experiment concerns PC-3 prostate cancer cells. The experiment in a line: EDR anti-proliferation assay (3H-thymidine incorporation, soft agar), PC-3. The format is cell-based. Conditions: PC-3 cell line; five days incubation; 3H-TdR incorporation; read-out: PC-3 or MCF-7* IC50. The procedure: as §1
The PC-3 cell line was maintained in RPMI supplemented with 10% fetal calf serum and antibiotics. The EDR assay was performed as described by Kern and Weisenthal in “Highly Specific Prediction of Antineoplastic Drug Resistance With An In Vitro Assay Using Suprapharmacologic Drug Exposures,” J. Nat. Cancer Inst., 82:582-588 (1990); and Fruehauf and Bosanquet, “In vitro Determination of Drug Response: A Discussion of Clinical Applications,” PPO Updates 7(12):1-16 (1993). Cells were suspended in 0.12% soft agar in complete medium and plated (2,000 cells per well, as determined by preliminary experiments) in different drug concentrations onto a 0.4% agarose underlayer in 24-well plates. Plating cells on agarose underlayers supports the proliferation only of the transformed cells, ensuring that the growth signal stems from the malignant component of the tumor.
All compounds were dissolved in DMSO to 200× stock solutions. Stock solutions were diluted to 20× working solutions using the tissue culture medium, serially diluted and added to the 24-well plates. The concentration range was 0.001 μM to 0.3 μM for trichostatin and 10 μM-1,000 μM for the other compounds. No significant changes in pH of the culture medium were observed under the above conditions. Diluent control wells contained PC3 cells treated with DMSO, at the dilutions used for appropriate drug treatment. All experimental points were represented by two separate wells (duplicates). Positive controls were determined using at least two wells treated with an extremely high dose of cisplatin, an anti-cancer agent. Four wells containing tumor cells that were not treated with drugs served as negative controls in each experiment.
Cells were incubated with drugs under standard culture conditions for five days. Cultures were pulsed with tritiated thymidine (^3H-TdR, New Life Science Products, Boston, Mass.) at 5 μCi per well for the last 48 hours of the culture period.
Cell culture plates were then heated to 90° C. to liquefy the agarose, and cells were harvested onto glass fiber filters, which were then placed into counting vials containing liquid scintillation fluid. The radioactivity trapped on the filters was counted with a Beckman scintillation counter. The fraction of surviving cells was determined by comparing ^3H-TdR incorporation in treated (experimental points) and untreated (negative control) wells. All drug concentrations are presented as μM, allowing for normalization of drug response curves and direct comparison of the effects of the drugs. Microsoft Excel was used to organize the raw data on EDR experiments, and the SigmaPlot program was utilized to generate drug response curves. All drug response curves were as approximated as sigmoidal equations (characteristic for typical drug response curves) to fit the data. IC50 values were determined using the approximated sigmoidal curves and expressed as μM. Table 12 provides the PC-3 or MCF-7 IC50 data for each of the compounds tested.
Background: Incorporation of labelled thymidine or its analogues reports DNA synthesis.
Regarding `CCCC(=O)SCSC(=O)CCC`, the IC50 turned out to be 40 µM.

For the compound `CCCC(=O)CCOC(=O)C=Cc1ccccc1` [3-oxohexyl cinnamate, 3-Oxohexyl Cinnamate], the IC50 stood at 40 µM.

In the case of `CCCC(=O)OCN(C)C(=O)COCCOC` [N-Methyl-2-(2-methoxyethoxy)acetamidomethyl Butyrate], the IC50 amounted to 36 µM.

Regarding `CCCC(=O)N(C)COC(=O)C=Cc1ccccc1` [N-methylbutyramidomethyl cinnamate, N-Methylbutyramidomethyl Cinnamate], the IC50 came out at 100 µM.

In the case of `CCCC(=O)OCN(C)C(=O)C=Cc1ccccc1` [N-methylcinnamamidomethyl butyrate, N-Methylcinnamamidomethyl Butyrate], the IC50 was found to be 20 µM.

As for `CCCC(=O)O` [butyric acid, reference compound], the half-maximal inhibitory concentration (IC50) was greater than 2000 µM.

For the compound `CCCC(=O)OCOC(=S)C=Cc1ccccc1` [butyroyloxymethyl thiocinnamate, Butyroyloxymethyl Thiocinnamate], the IC50 stood at 30 µM.

With `CCCC(=S)OCOC(=O)C=Cc1ccccc1` [cinnamoyloxymethyl thio-butyrate, Cinnamoyloxymethyl Thiobutyrate], the IC50 was 30 µM.

Consider `CC(/C=C/C(=O)NO)=C\[C@@H](C)C(=O)c1ccc(N(C)C)cc1` [trichostatin, reference compound], for which the 50% inhibitory concentration (IC50) was found to be 0.005 µM.
